In patent publication US20260022143A1, “Cyclic Peptide Inhibitors of IL-23” (JANSSEN PHARMACEUTICA NV, priority 2022, published 2026):
Starred links: 1 amine or outer side, 2 acyl side, 3 side chain; linkers in the order of their positions; H or OH if unused. Positions of bridges follow the written chain, without caps; N, C: chain ends. Non-standard residues stand in square brackets, D forms with d. Residues, ends and D or L forms follow the SMILES beside them. *: point of attachment. Trp(7-(3-AcNH-Ph)) = CC(=O)Nc1cccc(-c2cccc3c(C[C@H](N)C(=O)O)c[nH]c23)c1; X36 = C[N+]1(CCCc2cn(-c3ccc(C[C@H](N[*:1])C(=O)[*:2])cc3)nn2)CCOCC1; X13 = C[N+]1(Cc2cn(-c3ccc(C[C@H](N[*:1])C(=O)[*:2])cc3)nn2)CCOCC1; X51 = C[N+](C)(C)CCCc1cn(-c2ccc(C[C@H](N[*:1])C(=O)[*:2])cc2)nn1; X27 = C[N+](C)(C)CCc1cn(-c2ccc(C[C@H](N[*:1])C(=O)[*:2])cc2)nn1; X16 = C[N+](C)(C)Cc1cn(-c2ccc(C[C@H](N[*:1])C(=O)[*:2])cc2)nn1; Me3N+(CH2)2O(CH2)2O(CH2)2CO = C[N+](C)(C)CCOCCOCCC(=O)*; Trp(7-Me) = Cc1cccc2c(C[C@H](N)C(=O)O)c[nH]c12; dLys(Me3) = C[N+](C)(C)CCCC[C@@H](N)C(=O)O; 2Nal = N[C@@H](Cc1ccc2ccccc2c1)C(=O)O; AEF = NCCOc1ccc(C[C@H](N)C(=O)O)cc1; 3Pal = N[C@@H](Cc1cccnc1)C(=O)O; X53 = C[N+]1(CCOCCOCC*)CCOCC1; Pen = CC(C)(S)[C@H](N)C(=O)O; X8 = C[N+](C)(C)CCCCCCCC*; Thp = NC1(C(=O)O)CCOCC1; X3 = C[N+](C)(C)CCCCC*; Sar = CNCC(=O)O

How the values were obtained:
IL-23R = molecular target: T1, IL-23R (Homo sapiens, UniProt Q5VWK5); assay: IL23R Reporter Assay; format: cell-based; conditions: HEK293 cells containing IL-23R, IL-12RP1 and STAT-inducible firefly luciferase reporter; 10 ng/mL IL-23 (EC90); 5 h at 37° C.; read-out: IL23R Reporter Assay
T1 construct: host or cells: HEK293
T1 sequence (Q5VWK5 24-629): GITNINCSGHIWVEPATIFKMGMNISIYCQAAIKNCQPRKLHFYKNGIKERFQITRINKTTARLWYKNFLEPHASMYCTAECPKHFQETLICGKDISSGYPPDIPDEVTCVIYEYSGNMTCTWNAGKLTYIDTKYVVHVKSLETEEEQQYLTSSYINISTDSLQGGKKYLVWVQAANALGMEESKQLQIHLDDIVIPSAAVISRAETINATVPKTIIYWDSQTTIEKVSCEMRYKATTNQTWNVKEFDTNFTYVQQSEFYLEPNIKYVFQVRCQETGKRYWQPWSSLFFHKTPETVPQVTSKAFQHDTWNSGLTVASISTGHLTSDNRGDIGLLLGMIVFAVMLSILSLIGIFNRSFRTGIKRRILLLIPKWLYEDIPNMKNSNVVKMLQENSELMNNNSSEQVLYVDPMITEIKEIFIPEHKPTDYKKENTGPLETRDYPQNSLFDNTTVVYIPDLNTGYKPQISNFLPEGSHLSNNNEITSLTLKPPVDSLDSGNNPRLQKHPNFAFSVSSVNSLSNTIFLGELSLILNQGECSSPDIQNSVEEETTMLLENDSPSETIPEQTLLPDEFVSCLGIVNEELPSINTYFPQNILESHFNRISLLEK

[1] = Exposed Polar Surface Area (EPSA); format: physicochemical; conditions: SFC on Chirex 3014 column; sample 1 mM DMSO stock; read-out: EPSA
How it was run: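 Retention-based polarity: supercritical CO2 with 20 mM ammonium formate in MeOH (5–60%, 20%/min), Chirex 3014 column, 35 °C. Calibrated against 8 standards to give EPSA (Å^2); each sample measured twice.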

Row | SMILES | IC50 (IL-23R) | EPSA [1]
1 | CC(=O)NCCCC[C@@H]1NC(=O)[C@H](Cc2c[nH]c3c(C)cccc23)NC(=O)[C@H]([C@@H](C)O)NC(=O)[C@H](CC(N)=O)NC(=O)[C@@H](NC(=O)CCOCCOCC[N+](C)(C)C)C(C)(C)SSC(C)(C)[C@@H](C(=O)N[C@@H](Cc2ccc(-n3cc(C[N+](C)(C)C)nn3)cc2)C(=O)N[C@@H](Cc2ccc3ccccc3c2)C(=O)NC2(C(=O)N[C@@H](CCCCNC(C)=O)C(=O)N[C@@H](CC(N)=O)C(=O)N[C@@H](Cc3cccnc3)C(=O)N(C)CC(N)=O)CCOCC2)NC1=O [compound 438, cPEG3aCO-Pen(3)-N-T-7MeW-K(Ac)-Pen(3)-F(4TzlTMA1)-2Nal-THP-K(Ac)-N-3Pya-Sar-CONH2] ({Me3N+(CH2)2O(CH2)2O(CH2)2CO}-[Pen]NT[Trp(7-Me)]K(Ac)[Pen][X16][2Nal][Thp]K(Ac)N[3Pal][Sar]-NH2; disulfide 1-6) | 3.4 nM | 167 A^2
2 | CC(=O)NCCCC[C@@H]1NC(=O)[C@H](Cc2c[nH]c3c(C)cccc23)NC(=O)[C@H]([C@@H](C)O)NC(=O)[C@H](CC(N)=O)NC(=O)[C@@H](NC(C)=O)C(C)(C)SSC(C)(C)[C@@H](C(=O)N[C@@H](Cc2ccc(-n3cc(CCC[N+]4(C)CCOCC4)nn3)cc2)C(=O)N[C@@H](Cc2ccc3ccccc3c2)C(=O)NC2(C(=O)N[C@@H](CCCCNC(C)=O)C(=O)N[C@@H](CC(N)=O)C(=O)N[C@@H](Cc3cccnc3)C(=O)N(C)CC(N)=O)CCOCC2)NC1=O [compound 440] (Ac-[Pen]NT[Trp(7-Me)]K(Ac)[Pen][X36][2Nal][Thp]K(Ac)N[3Pal][Sar]-NH2; disulfide 1-6 (inferred)) | 2 nM | 163 A^2
3 | CC(=O)NCCCC[C@@H]1NC(=O)[C@H](Cc2c[nH]c3c(-c4cccc(NC(C)=O)c4)cccc23)NC(=O)[C@H]([C@@H](C)O)NC(=O)[C@H](CC(N)=O)NC(=O)[C@@H](NC(=O)CCOCCOCC[N+](C)(C)C)C(C)(C)SSC(C)(C)[C@@H](C(=O)N[C@@H](Cc2ccc(OCCN)cc2)C(=O)N[C@@H](Cc2ccc3ccccc3c2)C(=O)NC2(C(=O)N[C@@H](CCC(=O)O)C(=O)N[C@@H](CC(N)=O)C(=O)N[C@@H](Cc3cccnc3)C(=O)N(C)CC(N)=O)CCOCC2)NC1=O [compound 443, cPEG3aCO-Pen(3)-N-T-7(3NAcPh)W-K(Ac)-Pen(3)-AEF-2Nal-THP-E-N-3Pya-Sar-CONH2] ({Me3N+(CH2)2O(CH2)2O(CH2)2CO}-[Pen]NT[Trp(7-(3-AcNH-Ph))]K(Ac)[Pen][AEF][2Nal][Thp]EN[3Pal][Sar]-NH2; disulfide 1-6) | 2.1 nM | 191 A^2
4 | CC(=O)NCCCC[C@@H]1NC(=O)[C@H](Cc2c[nH]c3c(C)cccc23)NC(=O)[C@H]([C@@H](C)O)NC(=O)[C@H](CC(N)=O)NC(=O)[C@@H](NC(=O)[C@@H](CCCC[N+](C)(C)C)NC(C)=O)C(C)(C)SSC(C)(C)[C@@H](C(=O)N[C@@H](Cc2ccc(OCCN)cc2)C(=O)N[C@@H](Cc2ccc3ccccc3c2)C(=O)NC2(C(=O)N[C@@H](CCCCNC(C)=O)C(=O)N[C@@H](CC(N)=O)C(=O)N[C@@H](Cc3cccnc3)C(=O)N(C)CC(N)=O)CCOCC2)NC1=O [compound 447] (Ac-[dLys(Me3)][Pen]NT[Trp(7-Me)]K(Ac)[Pen][AEF][2Nal][Thp]K(Ac)N[3Pal][Sar]-NH2; disulfide 2-7 (inferred)) | 2 nM | 171 A^2
5 | CC(=O)NCCCC[C@@H]1NC(=O)[C@H](Cc2c[nH]c3c(-c4cccc(NC(C)=O)c4)cccc23)NC(=O)[C@H]([C@@H](C)O)NC(=O)[C@H](CC(N)=O)NC(=O)[C@@H](NC(=O)[C@@H](CCCC[N+](C)(C)C)NC(C)=O)C(C)(C)SSC(C)(C)[C@@H](C(=O)N[C@@H](Cc2ccc(OCCCCC[N+](C)(C)C)cc2)C(=O)N[C@@H](Cc2ccc3ccccc3c2)C(=O)NC2(C(=O)N[C@@H](CCC(=O)O)C(=O)N[C@@H](CC(N)=O)C(=O)N[C@@H](Cc3cccnc3)C(=O)N(C)CC(N)=O)CCOCC2)NC1=O [compound 448, MeCO-k(Me)3-Pen(3)-N-T-7(3NAcPh)W-K(Ac)-Pen(3)-TMAPF-2Nal-THP-E-N-3Pya-Sar-CONH2] (Ac-[dLys(Me3)][Pen]NT[Trp(7-(3-AcNH-Ph))]K(Ac)[Pen]Y(X3)[2Nal][Thp]EN[3Pal][Sar]-NH2; disulfide 2-7) | 2 nM | 176 A^2
6 | CC(=O)NCCCC[C@@H]1NC(=O)[C@H](Cc2c[nH]c3c(-c4cccc(NC(C)=O)c4)cccc23)NC(=O)[C@H]([C@@H](C)O)NC(=O)[C@H](CC(N)=O)NC(=O)[C@@H](NC(C)=O)C(C)(C)SSC(C)(C)[C@@H](C(=O)N[C@@H](Cc2ccc(OCCCCC[N+](C)(C)C)cc2)C(=O)N[C@@H](Cc2ccc3ccccc3c2)C(=O)NC2(C(=O)N[C@@H](CCC(=O)O)C(=O)N[C@@H](CC(N)=O)C(=O)N[C@@H](Cc3cccnc3)C(=O)N(C)CC(N)=O)CCOCC2)NC1=O [compound 451, MeCO-Pen(3)-N-T-7(3NAcPh)W-K(Ac)-Pen(3)-TMAPF-2Nal-THP-E-N-3Pya-Sar-CONH2] (Ac-[Pen]NT[Trp(7-(3-AcNH-Ph))]K(Ac)[Pen]Y(X3)[2Nal][Thp]EN[3Pal][Sar]-NH2; disulfide 1-6) | 1.5 nM | 172 A^2
7 | CC(=O)NCCCC[C@@H]1NC(=O)[C@H](Cc2c[nH]c3c(C)cccc23)NC(=O)[C@H]([C@@H](C)O)NC(=O)[C@H](CC(N)=O)NC(=O)[C@@H](NC(C)=O)C(C)(C)SSC(C)(C)[C@@H](C(=O)N[C@@H](Cc2ccc(-n3cc(CC[N+](C)(C)C)nn3)cc2)C(=O)N[C@@H](Cc2ccc3ccccc3c2)C(=O)NC2(C(=O)N[C@@H](CCC(=O)O)C(=O)N[C@@H](CC(N)=O)C(=O)N[C@@H](Cc3cccnc3)C(=O)N(C)CC(N)=O)CCOCC2)NC1=O [compound 454] (Ac-[Pen]NT[Trp(7-Me)]K(Ac)[Pen][X27][2Nal][Thp]EN[3Pal][Sar]-NH2; disulfide 1-6 (inferred)) | 2.1 nM | 176 A^2
8 | CC(=O)NCCCC[C@@H]1NC(=O)[C@H](Cc2c[nH]c3c(C)cccc23)NC(=O)[C@H]([C@@H](C)O)NC(=O)[C@H](CC(N)=O)NC(=O)[C@@H](NC(C)=O)C(C)(C)SSC(C)(C)[C@@H](C(=O)N[C@@H](Cc2ccc(OCCOCCOCC[N+]3(C)CCOCC3)cc2)C(=O)N[C@@H](Cc2ccc3ccccc3c2)C(=O)NC2(C(=O)N[C@@H](CCCCNC(C)=O)C(=O)N[C@@H](CC(N)=O)C(=O)N[C@@H](Cc3cccnc3)C(=O)N(C)CC(N)=O)CCOCC2)NC1=O [compound 455] (Ac-[Pen]NT[Trp(7-Me)]K(Ac)[Pen]Y(X53)[2Nal][Thp]K(Ac)N[3Pal][Sar]-NH2; disulfide 1-6) | 2.1 nM | 158 A^2
9 | CC(=O)NCCCC[C@@H]1NC(=O)[C@H](Cc2c[nH]c3c(C)cccc23)NC(=O)[C@H]([C@@H](C)O)NC(=O)[C@H](CC(N)=O)NC(=O)[C@@H](NC(C)=O)C(C)(C)SSC(C)(C)[C@@H](C(=O)N[C@@H](Cc2ccc(OCCCCCCCC[N+](C)(C)C)cc2)C(=O)N[C@@H](Cc2ccc3ccccc3c2)C(=O)NC2(C(=O)N[C@@H](CCCCNC(C)=O)C(=O)N[C@@H](CC(N)=O)C(=O)N[C@@H](Cc3cccnc3)C(=O)N(C)CC(N)=O)CCOCC2)NC1=O [compound 456] (Ac-[Pen]NT[Trp(7-Me)]K(Ac)[Pen]Y(X8)[2Nal][Thp]K(Ac)N[3Pal][Sar]-NH2; disulfide 1-6 (inferred)) | 1.5 nM | 156 A^2
10 | CC(=O)NCCCC[C@@H]1NC(=O)[C@H](Cc2c[nH]c3c(C)cccc23)NC(=O)[C@H]([C@@H](C)O)NC(=O)[C@H](CC(N)=O)NC(=O)[C@@H](NC(C)=O)C(C)(C)SSC(C)(C)[C@@H](C(=O)N[C@@H](Cc2ccc(-n3cc(CCC[N+](C)(C)C)nn3)cc2)C(=O)N[C@@H](Cc2ccc3ccccc3c2)C(=O)NC2(C(=O)N[C@@H](CCC(=O)O)C(=O)N[C@@H](CC(N)=O)C(=O)N[C@@H](Cc3cccnc3)C(=O)N(C)CC(N)=O)CCOCC2)NC1=O [compound 458] (Ac-[Pen]NT[Trp(7-Me)]K(Ac)[Pen][X51][2Nal][Thp]EN[3Pal][Sar]-NH2; disulfide 1-6 (inferred)) | 2.6 nM | 172 A^2
11 | CC(=O)NCCCC[C@@H]1NC(=O)[C@H](Cc2c[nH]c3c(C)cccc23)NC(=O)[C@H]([C@@H](C)O)NC(=O)[C@H](CC(N)=O)NC(=O)[C@@H](NC(C)=O)C(C)(C)SSC(C)(C)[C@@H](C(=O)N[C@@H](Cc2ccc(-n3cc(C[N+]4(C)CCOCC4)nn3)cc2)C(=O)N[C@@H](Cc2ccc3ccccc3c2)C(=O)NC2(C(=O)N[C@@H](CCC(=O)O)C(=O)N[C@@H](CC(N)=O)C(=O)N[C@@H](Cc3cccnc3)C(=O)N(C)CC(N)=O)CCOCC2)NC1=O [compound 459] (Ac-[Pen]NT[Trp(7-Me)]K(Ac)[Pen][X13][2Nal][Thp]EN[3Pal][Sar]-NH2; disulfide 1-6 (inferred)) | 1.8 nM | 178 A^2
